The target in assay [1] is T1, ALK (Homo sapiens, UniProt Q9UM73).
T1 construct: host or cells: baculovirus expression system
In words: ALK Kinase Assay (ELISA/TRF, PLC-γ substrate). Format: biochemical. The conditions noted are these: ALK kinase inhibition, 1 μM ATP; read-out: ALK Potency. In a few lines:
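Wells were coated with 10 μg/mL phospholipase C-γ substrate in TBS, and the reaction was started by adding 30 ng/ml ALK enzyme and run at 37° C for 15 minutes. Phosphorylated product was detected with Eu-N1-labeled PT66 antibody, and IC50 values came from sigmoidal variable-slope fits of percent inhibition against log concentration.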
Background: ELISA stands for enzyme-linked immunosorbent assay.

Assay [2] deals with T2, JAK2 (Homo sapiens, UniProt O60674).
T2 construct: host or cells: baculovirus expression system
In words: Recombinant Human JAK2 Kinase Assay (TRF). Format: biochemical. The conditions noted are these: JAK2 kinase inhibition, 0.2 μM ATP; read-out: JAK2 Potency. In a few lines: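 TRF read-out: Eu-N1 PY100 anti-phosphotyrosine antibody detects product. Enzyme is baculovirus-expressed JAK2 at 15 ng/ml; substrate is a biotinyl 15-mer peptide bound to Neutravidin-coated wells. Buffer 20 mM HEPES pH 7.2, 0.2 μM ATP, 1 mM MnCl2, 0.1% BSA, 2.5% DMSO final; 20 min, RT.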

The structures appear in SMILES notation.

T2 sequence (O60674 whole entry): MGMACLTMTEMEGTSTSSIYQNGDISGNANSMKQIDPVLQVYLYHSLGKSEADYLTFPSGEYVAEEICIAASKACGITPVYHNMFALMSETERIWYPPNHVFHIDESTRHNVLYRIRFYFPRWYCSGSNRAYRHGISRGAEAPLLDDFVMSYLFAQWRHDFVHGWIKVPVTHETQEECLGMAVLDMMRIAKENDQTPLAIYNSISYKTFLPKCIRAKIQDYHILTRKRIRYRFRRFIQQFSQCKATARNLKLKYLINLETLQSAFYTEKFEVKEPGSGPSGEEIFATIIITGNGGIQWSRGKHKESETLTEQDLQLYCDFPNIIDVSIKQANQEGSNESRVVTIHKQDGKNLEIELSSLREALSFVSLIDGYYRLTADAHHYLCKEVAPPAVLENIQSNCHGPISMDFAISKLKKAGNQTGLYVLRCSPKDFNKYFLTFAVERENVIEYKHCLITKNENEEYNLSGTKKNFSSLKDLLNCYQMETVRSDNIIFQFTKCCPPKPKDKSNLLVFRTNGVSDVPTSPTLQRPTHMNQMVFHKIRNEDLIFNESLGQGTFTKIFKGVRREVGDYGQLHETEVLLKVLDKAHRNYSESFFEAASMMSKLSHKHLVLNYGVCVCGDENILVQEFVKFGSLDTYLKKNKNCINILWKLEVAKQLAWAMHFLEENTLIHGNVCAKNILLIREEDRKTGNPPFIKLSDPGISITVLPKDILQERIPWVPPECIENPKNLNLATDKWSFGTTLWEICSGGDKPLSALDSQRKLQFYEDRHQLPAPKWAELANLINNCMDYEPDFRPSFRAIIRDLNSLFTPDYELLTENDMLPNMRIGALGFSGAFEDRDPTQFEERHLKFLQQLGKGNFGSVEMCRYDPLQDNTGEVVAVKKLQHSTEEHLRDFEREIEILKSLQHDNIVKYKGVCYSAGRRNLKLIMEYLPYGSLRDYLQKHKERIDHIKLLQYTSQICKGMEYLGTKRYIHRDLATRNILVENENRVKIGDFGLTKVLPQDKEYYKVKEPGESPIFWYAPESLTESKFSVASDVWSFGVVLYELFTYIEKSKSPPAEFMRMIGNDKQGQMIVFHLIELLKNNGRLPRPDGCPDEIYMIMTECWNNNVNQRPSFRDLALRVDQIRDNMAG
T1 sequence (Q9UM73 19-1620): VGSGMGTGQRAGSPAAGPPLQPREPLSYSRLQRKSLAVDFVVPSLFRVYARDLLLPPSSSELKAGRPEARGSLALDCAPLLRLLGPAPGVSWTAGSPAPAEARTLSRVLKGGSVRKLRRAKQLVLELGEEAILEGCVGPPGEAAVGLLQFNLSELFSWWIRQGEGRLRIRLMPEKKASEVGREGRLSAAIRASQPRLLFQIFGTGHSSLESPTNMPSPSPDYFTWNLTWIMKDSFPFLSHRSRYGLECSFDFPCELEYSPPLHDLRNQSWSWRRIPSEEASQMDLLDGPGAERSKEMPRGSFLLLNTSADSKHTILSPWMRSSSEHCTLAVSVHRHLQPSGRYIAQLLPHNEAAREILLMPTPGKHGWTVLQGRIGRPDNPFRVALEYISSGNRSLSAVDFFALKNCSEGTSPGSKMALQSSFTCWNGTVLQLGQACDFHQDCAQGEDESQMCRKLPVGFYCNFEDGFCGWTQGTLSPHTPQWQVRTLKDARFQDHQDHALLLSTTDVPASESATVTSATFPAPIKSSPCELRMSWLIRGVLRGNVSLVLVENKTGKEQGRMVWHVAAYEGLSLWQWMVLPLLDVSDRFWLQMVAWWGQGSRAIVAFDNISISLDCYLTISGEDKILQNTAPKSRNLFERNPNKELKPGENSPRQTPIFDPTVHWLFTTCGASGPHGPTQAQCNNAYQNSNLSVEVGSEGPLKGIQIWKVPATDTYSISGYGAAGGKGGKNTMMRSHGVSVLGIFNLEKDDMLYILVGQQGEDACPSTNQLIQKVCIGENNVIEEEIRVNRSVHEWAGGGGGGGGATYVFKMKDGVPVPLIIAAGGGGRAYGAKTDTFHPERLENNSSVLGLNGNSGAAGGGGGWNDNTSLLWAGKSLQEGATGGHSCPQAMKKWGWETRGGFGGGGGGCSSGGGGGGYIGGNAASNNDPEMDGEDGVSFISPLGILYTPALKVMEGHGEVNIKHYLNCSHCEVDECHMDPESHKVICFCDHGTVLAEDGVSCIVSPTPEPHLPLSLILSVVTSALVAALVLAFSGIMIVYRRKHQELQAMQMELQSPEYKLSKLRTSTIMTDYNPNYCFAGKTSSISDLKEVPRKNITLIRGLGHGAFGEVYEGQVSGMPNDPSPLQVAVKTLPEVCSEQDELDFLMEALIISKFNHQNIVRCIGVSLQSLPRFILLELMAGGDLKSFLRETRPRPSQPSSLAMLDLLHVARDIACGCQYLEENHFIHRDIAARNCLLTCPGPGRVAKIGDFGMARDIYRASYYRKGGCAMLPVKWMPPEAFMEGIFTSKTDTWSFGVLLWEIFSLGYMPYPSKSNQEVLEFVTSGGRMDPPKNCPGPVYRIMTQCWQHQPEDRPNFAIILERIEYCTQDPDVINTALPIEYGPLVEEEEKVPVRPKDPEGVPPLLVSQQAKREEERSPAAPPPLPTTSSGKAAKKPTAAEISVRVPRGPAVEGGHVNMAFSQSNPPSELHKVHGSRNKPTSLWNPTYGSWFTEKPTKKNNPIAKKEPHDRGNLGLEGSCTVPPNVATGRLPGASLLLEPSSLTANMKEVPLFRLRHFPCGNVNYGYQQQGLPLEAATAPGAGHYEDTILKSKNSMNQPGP

Take `Cc1cc(-c2ccc3cnc(Nc4ccc(N5CCOCC5)cc4)nn23)cnc1F` [Example 1047, [7-(6-Fluoro-5-methyl-pyridin-3-yl)-pyrrolo[2,1-f][1,2,4]triazin-2-yl]-(4-morpholin-4-yl-phenyl)-amine]: the IC50 in assay [1] was 1000 to 10000 nM; in assay [2] it was less than 100 nM.
Consider `CN1CCN(c2ccc(Nc3ncc4ccc(-c5cccc(CN(C)S(C)(=O)=O)c5)n4n3)cc2)CC1` [Example 1048, N-Methyl-N-(3-{2-[4-(4-methyl-piperazin-1-yl)-phenylamino]-pyrrolo[2,1-f][1,2,4]triazin-7-yl}-benzyl)-methanesulfonamide], for which the IC50 is 100 to 1000 nM in assay [1] and less than 100 nM in assay [2].
On to `CS(=O)(=O)c1cccc(-c2ccc3cnc(Nc4ccc(CN5CCS(=O)(=O)CC5)cc4)nn23)c1` [Example 1049, [4-(1,1-Dioxo-1$1(6)-thiomorpholin-4-ylmethyl)-phenyl]-[7-(3-methanesulfonyl-phenyl)-pyrrolo[2,1-f][1,2,4]triazin-2-yl]-amine], for which the IC50 in assay [1] was 1000 to 10000 nM; in assay [2], less than 100 nM.
As to `O=S1(=O)CCN(Cc2ccc(Nc3ncc4ccc(-c5cccnc5)n4n3)cc2)CC1` [Example 1050, [4-(1,1-Dioxo-1$1(6)-thiomorpholin-4-ylmethyl)-phenyl]-(7-pyridin-3-yl-pyrrolo[2,1-f][1,2,4]triazin-2-yl)-amine], the IC50 in assay [1] is 1000 to 10000 nM; in assay [2] it was less than 100 nM.
In the case of `COc1ccc(-c2ccc3cnc(Nc4ccc(CN5CCS(=O)(=O)CC5)cc4)nn23)cn1` [Example 1051, [4-(1,1-Dioxo-1$1(6)-thiomorpholin-4-ylmethyl)-phenyl]-[7-(6-methoxy-pyridin-3-yl)-pyrrolo[2,1-f][1,2,4]triazin-2-yl]-amine], the IC50 in assay [1] was more than 10000 nM; in assay [2], less than 100 nM.
On to `CS(=O)(=O)Nc1cccc(-c2ccc3cnc(Nc4ccc(CN5CCS(=O)(=O)CC5)cc4)nn23)c1` [Example 1052, N-(3-{2-[4-(1,1-Dioxo-1 $1(6)-thiomorpholin-4-ylmethyl)-phenylamino]-pyrrolo[2,1-f][1,2,4]triazin-7-yl}-phenyl)-methanesulfonamide], for which the IC50 was 100 to 1000 nM in assay [1] and less than 100 nM in assay [2].
`CC(=O)Nc1cccc(Nc2ncc3ccc(-c4cccc(CN(C)S(C)(=O)=O)c4)n3n2)c1` [Example 1053, N-[3-(7-{3-[(Methanesulfonyl-methyl-amino)-methyl]-phenyl}-pyrrolo[2,1-f][1,2,4]triazin-2-ylamino)-phenyl]-acetamide]: the figures for the IC50 in assay [1] and in assay [2] were 1000 to 10000 nM and less than 100 nM, respectively.
`CN(Cc1cccc(-c2ccc3cnc(Nc4ccc5c(c4)NC(=O)C5(C)C)nn23)c1)S(C)(=O)=O` [Example 1054, N-{3-[2-(3,3-Dimethyl-2-oxo-2,3-dihydro-1H-indol-6-ylamino)-pyrrolo[2,1-f][1,2,4]triazin-7-yl]-benzyl}-N-methyl-methanesulfonamide]: the IC50 is more than 10000 nM in assay [1] and less than 100 nM in assay [2].
For `CC(C)(C)NS(=O)(=O)c1cccc(-c2ccc3cnc(Nc4ccc(C5CCN(CC(N)=O)CC5)cc4)nn23)c1` [Example 1055, 2-(4-{4-[7-(3-tert-Butylsulfamoyl-phenyl)-pyrrolo[2,1-f][1,2,4]triazin-2-ylamino]-phenyl}-piperidin-1-yl)-acetamide] the same measures were 100 to 1000 nM and less than 100 nM.
`CN1CCN(c2ccc(Nc3ncc4ccc(-c5ccc(CN6CCS(=O)(=O)CC6)nc5)n4n3)cc2)CC1` [Example 1056, {7-[6-(1,1-Dioxo-1$1(6)-thiomorpholin-4-ylmethyl)-pyridin-3-yl]-pyrrolo[2,1-f][1,2,4]triazin-2-yl}-[4-(4-methyl-piperazin-1-yl)-phenyl]-amine]: the values for the IC50 in assay [1] and in assay [2] were 100 to 1000 nM and less than 100 nM, respectively.
Taken in the same sequence, the figures for `CC(C)(C)NS(=O)(=O)c1cccc(-c2ccc3cnc(Nc4ccc(CN5CCS(=O)(=O)CC5)cc4)nn23)c1` [Example 1057, N-tert-Butyl-3-{2-[4-(1,1-dioxo-1 $1(6)-thiomorpholin-4-ylmethyl)-phenylamino]-pyrrolo[2,1-f][1,2,4]triazin-7-yl}-benzenesulfonamide] were 100 to 1000 nM and less than 100 nM.
Regarding `CC(C)(C)NS(=O)(=O)c1cccc(-c2ccc3cnc(Nc4ccc(C5CCN(C(=O)OC(C)(C)C)CC5)cc4)nn23)c1` [Example 1058, 4-{4-[7-(3-tert-Butylsulfamoyl-phenyl)-pyrrolo[2,1-f][1,2,4]triazin-2-ylamino]-phenyl}-piperidine-1-carboxylic acid tert-butyl ester], the IC50 in assay [1] is more than 10000 nM; in assay [2] it was less than 100 nM.
As to `CC(C)(C)NS(=O)(=O)c1cccc(-c2ccc3cnc(Nc4ccc(C5CCNCC5)cc4)nn23)c1` [Example 1059, N-tert-Butyl-3-[2-(4-piperidin-4-yl-phenylamino)-pyrrolo[2,1-f][1,2,4]triazin-7-yl]-benzenesulfonamide], the IC50 in assay [1] is 100 to 1000 nM; in assay [2], less than 100 nM.
For the molecule `CC(C)(C)NS(=O)(=O)c1cccc(-c2ccc3cnc(Nc4ccc5c(c4)N(S(C)(=O)=O)CCC5)nn23)c1` [Example 1060, N-tert-Butyl-3-[2-(1-methanesulfonyl-1,2,3,4-tetrahydro-quinolin-7-ylamino)-pyrrolo[2,1-f][1,2,4]triazin-7-yl]-benzenesulfonamide], the IC50 was 1000 to 10000 nM in assay [1] and less than 100 nM in assay [2].
On to `COc1ccc(-c2ccc3cnc(Nc4ccc5c(c4)N(S(C)(=O)=O)CCC5)nn23)cn1` [Example 1061, (1-Methanesulfonyl-1,2,3,4-tetrahydro-quinolin-7-yl)-[7-(6-methoxy-pyridin-3-yl)-pyrrolo[2,1-f][1,2,4]triazin-2-yl]-amine], for which the IC50 is more than 10000 nM in assay [1] and less than 100 nM in assay [2].
Consider `CN(c1ccccc1-c1ccc2cnc(Nc3ccc4c(c3)N(S(C)(=O)=O)CCC4)nn12)S(C)(=O)=O` [Example 1062, N-{2-[2-(1-Methanesulfonyl-1,2,3,4-tetrahydro-quinolin-7-ylamino)-pyrrolo[2,1-f][1,2,4]triazin-7-yl]-phenyl}-N-methyl-methanesulfonamide], for which the IC50 was 100 to 1000 nM in assay [1] and less than 100 nM in assay [2].
Regarding `NC(=O)CN1CCC(c2ccc(Nc3ncc4ccc(-c5cccc(CO)c5)n4n3)cc2)CC1` [Example 1065, 2-(4-{4-[7-(3-Hydroxymethyl-phenyl)-pyrrolo[2,1-f][1,2,4]triazin-2-ylamino]-phenyl}-piperidin-1-yl)-acetamide], the IC50 in assay [1] is 100 to 1000 nM; in assay [2] it was less than 100 nM.
For `CC(C)(C)NS(=O)(=O)c1cccc(-c2ccc3cnc(Nc4ccc5nc(CO)[nH]c5c4)nn23)c1` [Example 1066, N-tert-Butyl-3-[2-(2-hydroxymethyl-3H-benzoimidazol-5-ylamino)-pyrrolo[2,1-f][1,2,4]triazin-7-yl]-benzenesulfonamide], the IC50 in assay [1] is 1000 to 10000 nM; in assay [2], less than 100 nM.
For `COc1ccccc1-c1ccc2cnc(Nc3ccc4nc(CO)[nH]c4c3)nn12` [Example 1067, {6-[7-(2-Methoxy-phenyl)-pyrrolo[2,1-f][1,2,4]triazin-2-ylamino]-1H-benzoimidazol-2-yl}-methanol], the IC50 in assay [1] is 100 to 1000 nM; in assay [2] it was less than 100 nM.

The values above are taken from patent US8471005B2 (Cephalon, Inc., priority 2008, dated 2013).
